Measured values reported in patent publication US20190022152A1, “MICROBIOME RESPONSE TO AGENTS” (Yeda Research and Development Co., Ltd., priority 2014, published 2019).

How the values were obtained:
[1] = test system: germ-free Swiss-Webster mice; experiment: Fecal or culture transplantation into germ-free mice followed by OGTT; type: in vivo
Excerpt: (§1) C57Bl/6 WT adult male mice were randomly assigned (without blinding) to treatment groups and were given commercial artificial sweeteners (saccharin-, sucralose- or aspartame-based) or pure saccharin (Sigma Aldrich) in drinking water and fed a high-fat (HFD D12492, 60% Kcal from fat, Research Diets) or standard polysaccharide normal chow (NC) diet (Harlan-Teklad). Compared groups were always fed from the same batch of diet. For antibiotic treatment, mice were given a combination of ciprofloxacin (0.2 gl^−1) and metronidazole ([…]) or vancomycin (0.5 gl^−1) in their drinking water. All antibiotics were obtained from Sigma Aldrich. Adult male outbred Swiss-Webster mice (a widely used mouse strain in germ-free experiments) served as recipients for fecal transplants and were housed in sterile isolators (Park Biosciences). For fecal transplantation experiments, 200 mg of stool (from mouse pellets or human swabs) was resuspended in 5 ml of PBS under anaerobic conditions, vortexed for 3 minutes and allowed to settle by gravity for 2 minutes. Recipient mice were gavaged with 200 μl of the supernatant and maintained on standard NC diet and water throughout the experiment.
(§2) Mice were fasted for 6 hours during the light phase, with free access to water. In all groups of mice where the drinking regime was other than water, it was substituted for water for the period of the fasting and glucose or insulin tolerance test. Blood from the tail vein was used to measure glucose levels using a glucometer (Bayer) immediately before and 15, 30, 60, 90 and 120 minutes after oral feeding with 40 mg glucose (J.T. Baker) or intra-peritoneal injection with 0.1 Ukg^−1 Insulin (Biological Industries). Plasma fasting insulin levels were measured in sera collected immediately before the start of GTT using ELISA (Ultra Sensitive Mouse Insulin ELISA Kit, Crystal Chem).
(§3) pooled fecal matter from naïve adult WT C57Bl/6 male mice was resuspended in 5 ml PBS in an anaerobic chamber (Coy Laboratory Products, 75% N2, 20% CO2, 5% H2), vortexed for 3 minutes and allowed to settle by gravity for 2 minutes. […] were added to a tube containing Chopped Meat Carbohydrate Broth, PR II (BD) and […] of a 5 mgml-1 saccharin solution or an equal volume of PBS. Every 3 days, 500 ml of culture were diluted to fresh medium containing saccharin or PBS. After 9 days, cultures were used for inoculation of germ-free mice.

mice = experiment: Oral glucose tolerance test in mice drinking non-caloric artificial sweeteners (NAS); type: in vivo
Excerpt: as §1
The following commercially available NAS were dissolved in mice drinking water to obtain a 10% solution: Sucrazit (5% saccharin, 95% glucose), Sucralite (5% Sucralose), Sweet'n Low Gold (4% Aspartame). 10% glucose (J.T. Baker) and 10% sucrose (Sigma Aldrich) solutions were used for controls. […] For experiments conducted with pure saccharin (Sigma Aldrich) a 0.1 mgml^−1 solution was used in order to meet with FDA defined ADI for saccharin in humans (5 mgkg^−1), according to the following calculation:
as §2

[2] = cited from earlier work
fecal microbiota = test system: fecal microbiota
Experimental: (§4) Frozen fecal samples were processed for DNA isolation using the MoBio PowerSoil kit according to the manufacturer's instructions. 1 ng of the purified fecal DNA was used for PCR amplification and sequencing of the bacterial 16S rRNA gene. ˜365 bp Amplicons spanning the variable region 2 (V2) of the 16S rRNA gene were generated by using the following barcoded primers: Fwd 5′-[…]-3′ (SEQ ID NO: 3), Rev 5′-[…]-3′ (SEQ ID NO: 4). […] Reads were then processed using the QIIME (Quantitative Insights Into Microbial Ecology) analysis pipeline as described, version 1.8. Paired-end joined sequences were grouped into operational taxonomic units (OTUs) using the UCLUST algorithm and the greengenes database. Sequences with distance-based similarity of 97% or greater over median sequence length of 353 bp were assigned to the same OTU. Samples were grouped according to the treatment. Analysis was performed at each taxonomical level (Phylum-genus+OTU level) separately. For each taxon, G test was performed between the different groups. P-values were FDR corrected for multiple hypothesis testing.

[3] = test system: fecal matter from naïve mice; experiment: In vitro anaerobic culturing of fecal matter with saccharin; type: cell-based; details: anaerobic culture with saccharin 5 mgml^−1, day 9
Experimental: as §3
as §4, with “1 ng of the purified fecal DNA was used for PCR amplification and sequencing of the bacterial 16S rRNA gene. ˜365 bp Amplicons spanning” left out, “Analysis was performed at each taxonomical level (Phylum-genus+OTU level) separately. For each taxon, G test was performed between the different groups.” left out

With O=C1NS(=O)(=O)c2ccccc21 [saccharin] the “glucose tolerance of germ-free recipients” value ([1]; D7 (post exposure) vs D1 stool from human NAS responders after 7 days commercial saccharin, P<0.004, P<0.02) was “significant glucose intolerance”, the “glucose tolerance of germ-free recipients” value ([1]; D7 vs D1 stool from two human NAS non-responders) was “normal glucose tolerance” and the “glucose tolerance of germ-free recipients” value ([1]; donors HFD-consuming mice drinking pure saccharin vs water, p<0.004) was “replicated the glucose intolerance phenotype”. For the same compound, the “glucose tolerance of germ-free recipients” value ([1]; recipients of in vitro saccharin-treated (5 mgml^−1) fecal culture vs control culture, 6 days, p<0.002) was “significantly higher glucose intolerance”, the “glucose tolerance (OGTT)” value (mice; C57Bl/6 mice on HFD, 0.1 mgml^−1 pure saccharin in drinking water vs water, from 5 weeks, p<0.0002) was “impaired glucose tolerance” and the “glucose tolerance (OGTT)” value (mice; HFD-fed outbred Swiss Webster mice, 0.1 mgml^−1 pure saccharin, 5 weeks, p<0.03) was “significant glucose intolerance”. For the same compound, the “FDA defined ADI (acceptable daily intake) in humans” value ([2]; humans) was 5 mgkg^−1, the reported toxic dose ([2]; literature values) was 6.3 gkg^−1 and the “microbiota composition (dysbiosis)” value (fecal microbiota; mice consuming pure saccharin and HFD) was “dysbiosis was observed”. For the same compound, the “operational taxonomic units (OTUs) significantly altered in abundance” value (fecal microbiota; saccharin-consuming mice vs all control groups, week 11, FDR corrected p<0.05 (FIG. 21: commercial saccharin)) was greater than 40, the “Firmicutes relative abundance in stool culture” value ([3]; control 22%) was 6% and the “Bacteroidetes phyla relative abundance in stool culture” value ([3]; control 70%) was 89%.
